What was measured:
[1] = test system: Pseudomonas aeruginosa; assay: Antibacterial activity against TriABC expressing MexAB, MexCD, MexEF, MexXY deleted Pseudomonas aeruginosa PA405 after 24 hrs by geometric microdilution method; type: functional; conditions: PA405, 24 h
[2] = test system: Pseudomonas aeruginosa; assay: Antibacterial activity against MexXY expressing Pseudomonas aeruginosa PT629 after 24 hrs by geometric microdilution method; type: functional; conditions: PT629, 24 h
[3] = test system: Escherichia coli; assay: Antibacterial activity against R-methylase expressing Escherichia coli 06AB003 after 24 hrs by geometric microdilution method; type: functional; conditions: 06AB003, 24 h
[4] = test system: Escherichia coli; assay: Antibacterial activity against ANT2'-2a expressing Escherichia coli L58058.1 after 24 hrs by geometric microdilution method; type: functional; conditions: L58058.1, 24 h
[5] = test system: Acinetobacter lwoffii; assay: microbe, parasite or virus in culture; conditions: ATCC 17925, 24 h
Description: Antibacterial activity against Acinetobacter lwoffii ATCC 17925 after 24 hrs by geometric microdilution method

[6] = test system: Pseudomonas aeruginosa; assay: Antibacterial activity against MexXY expressing Pseudomonas aeruginosa PA22 after 24 hrs by geometric microdilution method; type: functional; conditions: PA22, 24 h
[7] = test system: Pseudomonas aeruginosa; assay: Antibacterial activity against MexEF expressing Pseudomonas aeruginosa PA03 after 24 hrs by geometric microdilution method; type: functional; conditions: PA03, 24 h
[8] = test system: Citrobacter amalonaticus; assay: Antibacterial activity against R-methylase expressing Citrobacter amalonaticus 06AB0010 after 24 hrs by geometric microdilution method; type: functional; conditions: 06AB0010, 24 h
[9] = test system: Pseudomonas aeruginosa; assay: Antibacterial activity against MexAB, MexCD, MexEF, MexXY, TriABC deleted Pseudomonas aeruginosa PA406 after 24 hrs by geometric microdilution method; type: functional; conditions: PA406, 24 h
[10] = test system: Klebsiella aerogenes; assay: Antibacterial activity against R-methylase expressing Enterobacter aerogenes 06AB008 after 24 hrs by geometric microdilution method; type: functional; conditions: 06AB008, 24 h
[11] = test system: Escherichia coli; assay: microbe, parasite or virus in culture; conditions: ATCC 25922, 24 h
Description: Antibacterial activity against Escherichia coli ATCC 25922 after 24 hrs by geometric microdilution method

[12] = test system: Pseudomonas aeruginosa; assay: Antibacterial activity against MexAB expressing Pseudomonas aeruginosa PA21 after 24 hrs by geometric microdilution method; type: functional; conditions: PA21, 24 h
[13] = test system: Pseudomonas aeruginosa; assay: Antibacterial activity against MexCD expressing Pseudomonas aeruginosa PA01 after 24 hrs by geometric microdilution method; type: functional; conditions: PA01, 24 h
[14] = test system: Pseudomonas aeruginosa; assay: Antibacterial activity against Pseudomonas aeruginosa ATCC 27853 after 24 hrs by geometric microdilution method; type: functional; conditions: ATCC 27853, 24 h
[15] = test system: Acinetobacter lwoffii; assay: Antibacterial activity against […] expressing Acinetobacter lwoffii AI.88-483 after 24 hrs by geometric microdilution method; type: functional; conditions: AI.88-483, 24 h
[16] = test system: Pseudomonas aeruginosa; assay: Antibacterial activity against Pseudomonas aeruginosa PAO1 after 24 hrs by geometric microdilution method; type: functional; conditions: PAO1, 24 h
[17] = test system: Pseudomonas aeruginosa; assay: Antibacterial activity against AAC6'-2a expressing Pseudomonas aeruginosa F03 after 24 hrs by geometric microdilution method; type: functional; conditions: F03, 24 h
[18] = test system: Klebsiella pneumoniae; assay: Antibacterial activity against Klebsiella pneumoniae ATCC 700603 after 24 hrs by geometric microdilution method; type: functional; conditions: ATCC 700603, 24 h
[19] = test system: Escherichia coli; assay: Antibacterial activity against AAC6'-2b expressing Escherichia coli PAZ505H8101 after 24 hrs by geometric microdilution method; type: functional; conditions: PAZ505H8101, 24 h
[20] = test system: Staphylococcus aureus; assay: Antibacterial activity against aminoglycoside-3'-O-phosphoryltransferase expressing Staphylococcus aureus after 24 hrs by geometric microdilution method; type: functional
[21] = test system: Staphylococcus aureus; assay: Antibacterial activity against MsrA pump expressing Staphylococcus aureus after 24 hrs by geometric microdilution method; type: functional
[22] = test system: Staphylococcus aureus; assay: Antibacterial activity against aminoglycoside-6'-N-acetyltransferase/2''-O-phosphoryltransferase expressing Staphylococcus aureus after 24 hrs by geometric microdilution method; type: functional
[23] = test system: Staphylococcus aureus; assay: Antibacterial activity against NorA pump expressing Staphylococcus aureus after 24 hrs by geometric microdilution method; type: functional
[24] = test system: Staphylococcus aureus; assay: Antibacterial activity against Staphylococcus aureus ATCC 25923 after 24 hrs by geometric microdilution method; type: functional; conditions: ATCC 25923, 24 h
[25] = test system: Staphylococcus aureus; assay: Antibacterial activity against methicillin-resistant Staphylococcus aureus ATCC 33592 clinical isolate after 24 hrs by geometric microdilution method; type: functional; conditions: ATCC 33592, 24 h
[26] = test system: Staphylococcus aureus; assay: Antibacterial activity against vancomycin-resistant Staphylococcus aureus VRS-2 after 24 hrs by geometric microdilution method; type: functional; conditions: VRS-2, 24 h
[27] = test system: Staphylococcus aureus; assay: Antibacterial activity against aminoglycoside-4'-O-phosphoryltransferase expressing Staphylococcus aureus after 24 hrs by geometric microdilution method; type: functional
[28] = test system: Pseudomonas aeruginosa; assay: Inhibition of protein synthesis in Pseudomonas aeruginosa ATCC 27853 assessed as decrease in incorporation of L-[4,5-3H]leucine at 5 times MIC by liquid scintillation counter relative to control; type: functional
[29] = test system: Pseudomonas aeruginosa; assay: Inhibition of protein synthesis in Pseudomonas aeruginosa ATCC 27853 assessed as decrease in incorporation of L-[4,5-3H]leucine at 10 times MIC by liquid scintillation counter relative to control; type: functional

NCC[C@H](O)C(=O)N[C@@H]1C[C@H](N)[C@@H](O[C@H]2O[C@H](CN)[C@@H](O)[C@H](O)[C@H]2O)[C@H](O)[C@H]1O[C@H]1O[C@H](CO)[C@@H](O)[C@H](N)[C@H]1O [AMIKACIN]
> 128 µg/mL: MIC [3] | MIC [8] | MIC [10] | MIC [15]
8 µg/mL: MIC [2] | MIC [6]
1 µg/mL: MIC [9]
32 µg/mL: MIC [19]
0.5 µg/mL: MIC [1] | MIC [5] | MIC [18]
2 µg/mL: MIC [4] | MIC [7] | MIC [12] | MIC [13] | MIC [14] | MIC [16]
4 µg/mL: MIC [11] | MIC [17]

NC[C@H]1O[C@H](O[C@H]2[C@H](O)[C@@H](O[C@H]3O[C@H](CO)[C@@H](O)[C@H](N)[C@H]3O)[C@H](N)C[C@@H]2N)[C@H](N)C[C@@H]1O [TOBRAMYCIN]
64 µg/mL: MIC [4]
128 µg/mL: MIC [17]
< 0.25 µg/mL: MIC [1] | MIC [7] | MIC [9]
32 µg/mL: MIC [19]
0.5 µg/mL: MIC [5] | MIC [11] | MIC [12] | MIC [13] | MIC [14] | MIC [16]
1 µg/mL: MIC [2] | MIC [6] | MIC [15]
> 128 µg/mL: MIC [3] | MIC [8] | MIC [10]
4 µg/mL: MIC [18]

NC[C@H]1O[C@H](O[C@H]2[C@H](O)[C@@H](OCc3ccccc3)[C@H](N)C[C@@H]2N)[C@H](N)[C@@H](OCc2ccccc2)[C@@H]1OCc1ccccc1
128 µg/mL: MIC [5]
64 µg/mL: MIC [1] | MIC [9] | MIC [26]
> 128 µg/mL: MIC [20] | MIC [21] | MIC [2] | MIC [22] | MIC [4] | MIC [23] | MIC [6] | MIC [7] | MIC [24] | MIC [25] | MIC [11] | MIC [12] | MIC [13] | MIC [27] | MIC [14] | MIC [15] | MIC [16] | MIC [17] | MIC [18] | MIC [19]

C[C@H]1[C@H](NC(=O)/C(=N\OC(C)(C)C(=O)O)c2csc(N)n2)C(=O)N1S(=O)(=O)O [AZTREONAM]
95%: inhibition (INH) [29]
30%: inhibition (INH) [28]

Reference: ChEMBL document CHEMBL1156794, “Synthesis and antimicrobial evaluation of amphiphilic neamine derivatives” (J Med Chem, 2010)
